The source of these data is patent US10968266B2, “GIP peptide analogues” (University of Copenhagen, priority 2014, dated 2021).

No end group written: not given here.

The target in series [1] is T1, human GIP receptor (Homo sapiens, UniProt P48546).
T1 construct: host or cells: COS-7 cells, transient transfection (calcium phosphate precipitation), pCMV-Script vector
T1 sequence (P48546 22-466): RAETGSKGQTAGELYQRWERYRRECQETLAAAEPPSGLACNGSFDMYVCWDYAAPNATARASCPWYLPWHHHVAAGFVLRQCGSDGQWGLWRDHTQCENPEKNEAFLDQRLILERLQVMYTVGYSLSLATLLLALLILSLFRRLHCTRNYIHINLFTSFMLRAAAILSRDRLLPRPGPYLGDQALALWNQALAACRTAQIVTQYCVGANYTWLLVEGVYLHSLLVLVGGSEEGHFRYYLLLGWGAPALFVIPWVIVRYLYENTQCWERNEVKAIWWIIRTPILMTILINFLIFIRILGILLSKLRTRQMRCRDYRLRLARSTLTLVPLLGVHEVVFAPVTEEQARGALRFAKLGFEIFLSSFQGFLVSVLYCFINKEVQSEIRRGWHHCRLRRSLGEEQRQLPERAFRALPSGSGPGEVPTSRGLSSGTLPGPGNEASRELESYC
The series is described as follows: cAMP accumulation assay (agonism, antagonism, Schild analysis), COS-7 cells transfected with human GIP receptor (Example 7). It is filed as cell-based. Particulars: for Intrinsic agonistic activity in cAMP accumulation: agonist mode; for Slope of Schild plot: GIP(1-42) dose-response curves with fixed antagonist concentrations. On the procedure:
COS-7 cells were grown in 10% CO2 and at 37° C. in Dulbecco's modified Eagle's medium 1885 supplemented with 10% fetal bovine serum, 2 mM glutamine, 180 units/ml penicillin, and 45 µg/ml streptomycin. Transfection of COS-7 cells was performed using the calcium phosphate precipitation method with chloroquine addition as previously described (Kissow et al., 2012).
Two days after transfection the cells were washed once with HEPES buffered saline (HBS) and incubated with HBS and 0.5 mM 3-isobutyl-1-methylxanthine (IBMX) for 30 minutes at 37° C. […] After ligand incubation, the HitHunter™ cAMP XS assay (an enzyme fragment complementation-based assay, DiscoveRx, Birmingham, United Kingdom) was carried out according to the manufacturer's instructions. All experiments were made in duplicates, and repeated at least three times. Luminescence was measured by Perkin Elmer™ EnVision 2104 Multilabled reader (Skovlunde, Danmark). In brief, the cells were lysed in the wells, the enzyme fragment-cAMP-antibody, an enzyme fragment and the enzyme substrates were added followed by 1 hour incubation at room temperature on shaker tray. The other enzyme fragment was added to the wells and incubated for 4 hours on shaker tray followed by measurements of luminescence. The ligand-induced cAMP competed with the binding of antibody to the first enzyme fragment and left the two fragments to fuse. The enzyme complex hydrolyzed the substrates and yielded luminescence. The number “n” refers to individual experiments with separate transfections although from same cell line.
IC50, EC50, and Kd/Ki values were determined by nonlinear regression. These, as well as maximal binding capacity (Bmax) values and Schild plot analysis were carried out with the GraphPad Prism 6.0 software (GraphPad, San Diego, Calif., USA) and Microsoft Excel™. Statistical analyses (unpaired t-tests) of two parameters were also performed with GraphPad Prism 6.0. The calculations of Bmax and Ki values were based on the formula for one class of binding sites in homologous competition binding studies and the Cheng Prussoffs formula, respectively (DeBlasi et al., 1989). Kd is the dissociation constant determined by homologous receptor binding. […] Schild plots were performed with log (DR-1) (ordinate) and log(antagonist concentration) (abscissa) to estimate the slopes and Ki values (Lazareno and Birdsall, 1993).

The target of series [2] is T1, human GIP receptor. Nature of the series: Competitive binding assay with 125I-labelled GIP radioligands, COS-7 cells transfected with human GIP receptor (Example 7). Particulars: radioligand 125I-GIP(1-42); relative to GIP(1-30)NH2. On the procedure: Transfection of COS-7 cells was performed using the calcium phosphate precipitation method with chloroquine addition as previously described (Kissow et al., 2012). […] Nonspecific binding was determined as the binding of radioligand to untransfected cells. All determinations were made in duplicates, and all experiments repeated at least three times. The samples were analyzed for radioactivity using a Wallac Wizard 1470 Gamma Counter (GMI Inc., Minnesota, USA). The number “n” refers to individual experiments with separate transfections although from same cell line. IC50, EC50, and Kd/Ki values were determined by nonlinear regression. […] Statistical analyses (unpaired t-tests) of two parameters were also performed with GraphPad Prism 6.0. The calculations of Bmax and Ki values were based on the formula for one class of binding sites in homologous competition binding studies and the Cheng Prussoffs formula, respectively (DeBlasi et al., 1989). Kd is the dissociation constant determined by homologous receptor binding. […] Schild plots were performed with log (DR-1) (ordinate) and log(antagonist concentration) (abscissa) to estimate the slopes and Ki values (Lazareno and Birdsall, 1993).

[3] abbreviates: inhibition of GIP(1-42) at 50-80% of max receptor activation.

Turning to `CC[C@H](C)[C@H](NC(=O)[C@H](CO)NC(=O)[C@H](Cc1ccc(O)cc1)NC(=O)[C@H](CC(=O)O)NC(=O)[C@H](CO)NC(=O)[C@@H](NC(=O)[C@H](Cc1ccccc1)NC(=O)[C@@H](NC(=O)CNC(=O)[C@H](CCC(=O)O)NC(=O)[C@H](C)NC(=O)[C@@H](N)Cc1ccc(O)cc1)[C@@H](C)O)[C@@H](C)CC)C(=O)N[C@@H](C)C(=O)N[C@@H](CCSC)C(=O)N[C@@H](CC(=O)O)C(=O)N[C@@H](CCCCN)C(=O)N[C@H](C(=O)N[C@@H](Cc1c[nH]cn1)C(=O)N[C@@H](CCC(N)=O)C(=O)N[C@@H](CCC(N)=O)C(=O)N[C@@H](CC(=O)O)C(=O)N[C@@H](Cc1ccccc1)C(=O)N[C@H](C(=O)N[C@@H](CC(N)=O)C(=O)N[C@@H](Cc1c[nH]c2ccccc12)C(=O)N[C@@H](CC(C)C)C(=O)N[C@@H](CC(C)C)C(=O)N[C@@H](C)C(=O)N[C@@H](CCC(N)=O)C(=O)N[C@@H](CCCCN)C(N)=O)C(C)C)[C@@H](C)CC` [GIP(1-30)NH2, reference compound], the “Intrinsic agonistic activity in cAMP accumulation” value at human GIP receptor [1] is listed as “full agonist”.
As for `CC[C@H](C)[C@H](NC(=O)[C@H](CO)NC(=O)[C@H](Cc1ccc(O)cc1)NC(=O)[C@H](CC(=O)O)NC(=O)[C@H](CO)NC(=O)[C@@H](NC(=O)[C@H](Cc1ccccc1)NC(=O)[C@@H](NC(=O)CN)[C@@H](C)O)[C@@H](C)CC)C(=O)N[C@@H](C)C(=O)N[C@@H](CCSC)C(=O)N[C@@H](CC(=O)O)C(=O)N[C@@H](CCCCN)C(=O)N[C@H](C(=O)N[C@@H](Cc1c[nH]cn1)C(=O)N[C@@H](CCC(N)=O)C(=O)N[C@@H](CCC(N)=O)C(=O)N[C@@H](CC(=O)O)C(=O)N[C@@H](Cc1ccccc1)C(=O)N[C@H](C(=O)N[C@@H](CC(N)=O)C(=O)N[C@@H](Cc1c[nH]c2ccccc12)C(=O)N[C@@H](CC(C)C)C(=O)N[C@@H](CC(C)C)C(=O)N[C@@H](C)C(=O)N[C@@H](CCC(N)=O)C(=O)N[C@@H](CCCCN)C(N)=O)C(C)C)[C@@H](C)CC` [GIP(4-30)NH2], the “Slope of Schild plot” value at human GIP receptor [1] was 0.75±0.02. In addition, on human GIP receptor [1] (setting [3]), the IC50 is 108 nM. Further, at human GIP receptor [2], the “Competitive binding fold (fold change of GIP(1-30)NH2 affinity)” value amounted to 24 fold.
As to “DYSIAMDKIHQQDFVNWLLAQK-NH2 [GIP(9-30)NH2]”, the “cAMP accumulation logIC50 ± SEM (antagonism)” value on human GIP receptor [1] (inhibition of GIP(1-42) at 50-80% of max receptor activation, given with negative sign) is on record as −6.35 ± 0.6. Besides, on human GIP receptor [1] (inhibition of submaximal GIP(1-42) activation), the “Fold lower antagonistic potency (right-shift) compared to GIP(3-30)NH2” value was 38 fold.
As to `CC[C@H](C)[C@H](NC(=O)[C@H](CO)NC(=O)[C@H](Cc1ccc(O)cc1)NC(=O)[C@H](CC(=O)O)NC(=O)[C@H](CO)NC(=O)[C@@H](NC(=O)[C@H](Cc1ccccc1)NC(=O)[C@@H](NC(=O)CNC(=O)[C@@H](N)CCC(=O)O)[C@@H](C)O)[C@@H](C)CC)C(=O)N[C@@H](C)C(=O)N[C@@H](CCSC)C(=O)N[C@@H](CC(=O)O)C(=O)N[C@@H](CCCCN)C(=O)N[C@H](C(=O)N[C@@H](Cc1c[nH]cn1)C(=O)N[C@@H](CCC(N)=O)C(=O)N[C@@H](CCC(N)=O)C(=O)N[C@@H](CC(=O)O)C(=O)N[C@@H](Cc1ccccc1)C(=O)N[C@H](C(=O)N[C@@H](CC(N)=O)C(=O)N[C@@H](Cc1c[nH]c2ccccc12)C(=O)N[C@@H](CC(C)C)C(=O)N[C@@H](CC(C)C)C(=O)N[C@@H](C)C(=O)N[C@@H](CCC(N)=O)C(=O)N[C@@H](CCCCN)C(N)=O)C(C)C)[C@@H](C)CC` [hGIP(3-30)], at human GIP receptor [1] (1 μM antagonist), the “Fold shift in the dose-response curve of human GIP(1-42)” value was determined as 281 fold.
For the molecule `CC[C@H](C)[C@H](NC(=O)[C@H](CO)NC(=O)[C@H](Cc1ccc(O)cc1)NC(=O)[C@H](CC(=O)O)NC(=O)[C@@H](N)CO)C(=O)N[C@@H](C)C(=O)N[C@@H](CCSC)C(=O)N[C@@H](CC(=O)O)C(=O)N[C@@H](CCCCN)C(=O)N[C@H](C(=O)N[C@@H](Cc1c[nH]cn1)C(=O)N[C@@H](CCC(N)=O)C(=O)N[C@@H](CCC(N)=O)C(=O)N[C@@H](CC(=O)O)C(=O)N[C@@H](Cc1ccccc1)C(=O)N[C@H](C(=O)N[C@@H](CC(N)=O)C(=O)N[C@@H](Cc1c[nH]c2ccccc12)C(=O)N[C@@H](CC(C)C)C(=O)N[C@@H](CC(C)C)C(=O)N[C@@H](C)C(=O)N[C@@H](CCC(N)=O)C(=O)N[C@@H](CCCCN)C(N)=O)C(C)C)[C@@H](C)CC` [GIP(8-30)NH2], it took 133 nM to reach half-maximal inhibition against human GIP receptor [1] (setting [3]) (IC50). Moreover, the “Competitive binding fold (fold change of GIP(1-30)NH2 affinity)” value on human GIP receptor [2] worked out at 89 fold.
Consider “porcine GIP(3-42): Porcine GIP(3-42), arginine in position 18 and serine in position 34; custom synthesized by PolyPeptide Laboratories (EGTFISDYSIAMDKIRQQDFVNWLLAQKGKKSDWKHNITQ) [reference compound]”, for which, in the series with human GIP receptor [1], the “Antagonism of GIP(1-42)-induced cAMP response (in words)” value is “higher potency compared to human GIP (3-42), yet not as high as human GIP(3-30)NH2” and the “Intrinsic agonistic activity in cAMP accumulation” value was “neither of the GIP(3-42) variants had any intrinsic agonistic activity”.
For the molecule `CC[C@H](C)[C@H](N)C(=O)N[C@@H](CO)C(=O)N[C@@H](CC(=O)O)C(=O)N[C@@H](Cc1ccc(O)cc1)C(=O)N[C@@H](CO)C(=O)N[C@H](C(=O)N[C@@H](C)C(=O)N[C@@H](CCSC)C(=O)N[C@@H](CC(=O)O)C(=O)N[C@@H](CCCCN)C(=O)N[C@H](C(=O)N[C@@H](Cc1c[nH]cn1)C(=O)N[C@@H](CCC(N)=O)C(=O)N[C@@H](CCC(N)=O)C(=O)N[C@@H](CC(=O)O)C(=O)N[C@@H](Cc1ccccc1)C(=O)N[C@H](C(=O)N[C@@H](CC(N)=O)C(=O)N[C@@H](Cc1c[nH]c2ccccc12)C(=O)N[C@@H](CC(C)C)C(=O)N[C@@H](CC(C)C)C(=O)N[C@@H](C)C(=O)N[C@@H](CCC(N)=O)C(=O)N[C@@H](CCCCN)C(N)=O)C(C)C)[C@@H](C)CC)[C@@H](C)CC` [GIP(7-30)NH2, reference compound], the “Slope of Schild plot” value on human GIP receptor [1] is 0.17±0.03. The same molecule came in with an IC50 against human GIP receptor [1] (setting [3]) of 137 nM.
